Patent US20230027985A1, “SUBSTITUTED HYDANTOINAMIDES AS ADAMTS7 ANTAGONISTS” (Bayer Aktiengesellschaft, priority 2019, published 2023)

Key:
[1] = biological target: T1, Purified recombinant ADAMTS-7 (rat prodomain/human catalytic domain, SEQ ID No. 01 or 02) (Homo sapiens, UniProt Q9UKP4); assay: Assay for ADAMTS-7 enzymatic activity (FRET substrate cleavage); type: biochemical; conditions: FRET substrate SEQ ID No. 11, 120 min at 32° C.; read-out: ADAMTS7-IC50
T1 construct: rat ADAMTS-7 signal peptide + prodomain (rat 1-217, Q1EHB3) (N); 2xStrep tag (C); 6xHis tag (C); made in house; host or cells: Expi293 cells
T1 sequence (Q9UKP4 237-537): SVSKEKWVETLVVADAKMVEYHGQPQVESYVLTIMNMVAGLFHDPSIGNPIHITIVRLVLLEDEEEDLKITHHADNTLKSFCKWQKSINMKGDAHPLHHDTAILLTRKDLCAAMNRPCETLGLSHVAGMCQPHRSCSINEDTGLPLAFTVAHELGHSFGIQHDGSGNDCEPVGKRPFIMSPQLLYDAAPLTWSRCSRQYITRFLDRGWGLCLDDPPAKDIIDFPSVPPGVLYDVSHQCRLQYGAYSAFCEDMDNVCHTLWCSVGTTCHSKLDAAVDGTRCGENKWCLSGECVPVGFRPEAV
Method in brief: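 IC50 values were fitted from percent inhibition across test-compound concentrations. Fluorescence gain (ex 485, em 520 nm) reports cleavage of a thrombospondin-1 (275-289) FRET peptide with QXL520 quencher, after 120 min at 32 °C. The enzyme, about 20 nM, was in HEPES pH 8.0 buffer with NaCl, CaCl2, ZnCl2 and Brij.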

ADAMTS4 = biological target: T2, ADAMTS4 (Homo sapiens, UniProt O75173); assay: Selectivity assay for ADAMTS-7 modulators (FRET), ADAMTS4; type: biochemical; conditions: 50 nM enzyme (R&D 4307-AD), 1 μM Dabcyl/Edans FRET substrate, 120 min at 32° C.
T2 construct: purchased R&D 4307-AD
T2 sequence (O75173 213-685 limits assumed): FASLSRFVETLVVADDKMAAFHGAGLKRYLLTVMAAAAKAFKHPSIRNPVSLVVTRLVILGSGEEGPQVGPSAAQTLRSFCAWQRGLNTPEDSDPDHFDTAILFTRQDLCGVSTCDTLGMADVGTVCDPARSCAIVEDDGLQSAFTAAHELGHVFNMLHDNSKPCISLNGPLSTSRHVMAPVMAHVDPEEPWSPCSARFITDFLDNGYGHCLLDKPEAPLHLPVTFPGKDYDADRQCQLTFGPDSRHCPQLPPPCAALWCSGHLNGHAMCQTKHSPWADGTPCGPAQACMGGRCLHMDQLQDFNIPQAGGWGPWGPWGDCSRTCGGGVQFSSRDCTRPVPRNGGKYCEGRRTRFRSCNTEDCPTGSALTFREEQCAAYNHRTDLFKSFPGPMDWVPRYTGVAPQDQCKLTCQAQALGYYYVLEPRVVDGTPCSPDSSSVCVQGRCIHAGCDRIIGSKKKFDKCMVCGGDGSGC
Method in brief: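 Enzyme in 50 mM Tris pH 7.5, 150 mM NaCl, 10 mM CaCl2, 0.05% Brij, preincubated with compound in DMSO; reaction started with FRET substrate. Fluorescence increase read after 120 min at 32° C; IC50 from percent inhibition versus compound concentration.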

SMILES | IC50 [1] | IC50 (ADAMTS4)
CC1(C)CC1C1(CNC(=O)c2cnn(-c3ccccc3)n2)NC(=O)NC1=O (racemic) [Example 150, ent-N-({4-[rac-2,2-dimethylcyclopropyl]-2,5-dioxoimidazolidin-4-yl}methyl)-2-phenyl-2H-1,2,3-triazole-4-carboxamide] | 38 nM | 2000 nM
CC1(CNC(=O)c2cnn(-c3ccc(F)cc3)n2)NC(=O)NC1=O (racemic) [Example 152, rac-2-(4-fluorophenyl)-N-[(4-methyl-2,5-dioxoimidazolidin-4-yl)methyl]-2H-1,2,3-triazole-4-carboxamide] | 560 nM | 5000 nM
O=C1NC(=O)C(CNC(=O)c2cnn(-c3ccc(F)cc3)n2)(C2(F)CC2)N1 (racemic) [Example 154, rac-N-{[4-(1-fluorocyclopropyl)-2,5-dioxoimidazolidin-4-yl]methyl}-2-(4-fluorophenyl)-2H-1,2,3-triazole-4-carboxamide] | 190 nM | 7900 nM
O=C1NC(=O)C(CNC(=O)c2cnn(-c3ccc(F)cc3)n2)(C2CC(F)(F)C2)N1 (racemic) [Example 155, rac-N-{[4-(3,3-difluorocyclobutyl)-2,5-dioxoimidazolidin-4-yl]methyl}-2-(4-fluorophenyl)-2H-1,2,3-triazole-4-carboxamide] | 220 nM | > 50000 nM
O=C1NC(=O)C(CNC(=O)c2cnn(-c3ccc(F)cc3)n2)(c2ncccc2C(F)(F)F)N1 (racemic) [Example 156, rac-N-({2,5-dioxo-4-[3-(trifluoromethyl)pyridin-2-yl]imidazolidin-4-yl}methyl)-2-(4-fluorophenyl)-2H-1,2,3-triazole-4-carboxamide] | 59 nM | 15000 nM
Cc1nc(C2(CNC(=O)c3cnn(-c4ccc(F)cc4)n3)NC(=O)NC2=O)c(C)s1 (racemic) [Example 158, rac-N-{[4-(2,5-dimethyl-1,3-thiazol-4-yl)-2,5-dioxoimidazolidin-4-yl]methyl}-2-(4-fluorophenyl)-2H-1,2,3-triazole-4-carboxamide] | 100 nM | 2800 nM
O=C1NC(=O)C(CNC(=O)c2cnn(-c3ccc(F)cc3)n2)(C2(Cl)CC2)N1 (racemic) [Example 159, rac-N-{[4-(1-chlorocyclopropyl)-2,5-dioxoimidazolidin-4-yl]methyl}-2-(4-fluorophenyl)-2H-1,2,3-triazole-4-carboxamide] | 74 nM | 3700 nM
CCC1(CNC(=O)c2cnn(-c3ccc(F)cc3)n2)NC(=O)NC1=O (racemic) [Example 162, rac-N-[(4-ethyl-2,5-dioxoimidazolidin-4-yl)methyl]-2-(4-fluorophenyl)-2H-1,2,3-triazole-4-carboxamide] | 200 nM | 13000 nM
O=C1NC(=O)C(CNC(=O)c2cnn(-c3ccc(F)cc3)n2)(c2ccccn2)N1 (single isomer, unassigned) [Example 97, ent-N-{[2,5-dioxo-4-(pyridin-2-yl)imidazolidin-4-yl]methyl}-2-(4-fluorophenyl)-2H-1,2,3-triazole-4-carboxamide] | 10 nM | 1900 nM
CCC(C)C1(CNC(=O)c2cnn(-c3ccc(F)cc3)n2)NC(=O)NC1=O (single isomer, unassigned) [Example 104, ent-N-[(4-sec-butyl-2,5-dioxoimidazolidin-4-yl)methyl]-2-(4-fluorophenyl)-2H-1,2,3-triazole-4-carboxamide] | 10 nM | 2200 nM
CCC(C)C1(CNC(=O)c2cnn(-c3ccc(F)cc3)n2)NC(=O)NC1=O (single isomer, unassigned) [Example 137, ent-N-[(4-sec-butyl-2,5-dioxoimidazolidin-4-yl)methyl]-2-(4-fluorophenyl)-2H-1,2,3-triazole-4-carboxamide] | 37 nM | 1000 nM
O=C1NC(=O)C(CNC(=O)c2cnn(-c3ccccc3)n2)(C2CCCOC2)N1 (single isomer, unassigned; dia1) [Example 84, dia1-N-{[4-(-oxan-3-yl)-2,5-dioxoimidazolidin-4-yl]methyl}-2-phenyl-2H-1,2,3-triazole-4-carboxamide] | 150 nM | 4000 nM
O=C1NC(=O)C(CNC(=O)c2cnn(-c3ccccc3)n2)(C2CCCOC2)N1 (single isomer, unassigned; dia2) [Example 85, dia2-N-{[4-(-oxan-3-yl)-2,5-dioxoimidazolidin-4-yl]methyl}-2-phenyl-2H-1,2,3-triazole-4-carboxamide] | 250 nM | 6500 nM
O=C1NC(=O)C(CNC(=O)c2cnn(-c3ccc(F)cc3)n2)(C2CCOCC2)N1 (single isomer, unassigned; ent-2) [Example 81] | 37 nM | 1500 nM
CC(C)C1(CNC(=O)c2cnn(-c3ccc(F)cc3F)n2)NC(=O)NC1=O (single isomer, unassigned; ent-2) [Example 88, ent-2-(2,4-difluorophenyl)-N-[(4-isopropyl-2,5-dioxoimidazolidin-4-yl)methyl]-2H-1,2,3-triazole-4-carboxamide] | 98 nM | 13000 nM
O=C1NC(=O)C(CNC(=O)c2cnn(-c3ccc(F)c(Cl)c3)n2)(C2CCC2)N1 (single isomer, unassigned; ent-2) [Example 91, ent-2-(3-chloro-4-fluorophenyl)-N-[(4-cyclobutyl-2,5-dioxoimidazolidin-4-yl)methyl]-2H-1,2,3-triazole-4-carboxamide] | 18 nM | 1800 nM
N#Cc1cccc(-n2ncc(C(=O)NCC3(C4CCC4)NC(=O)NC3=O)n2)c1 (single isomer, unassigned; ent-2) [Example 92, ent-2-(3-cyanophenyl)-N-[(4-cyclobutyl-2,5-dioxoimidazolidin-4-yl)methyl]-2H-1,2,3-triazole-4-carboxamide] | 78 nM | 4000 nM
O=C1NC(=O)C(CNC(=O)c2cnn(-c3ccc(Cl)cc3)n2)(C2CCC2)N1 (single isomer, unassigned; ent-2) [Example 95, ent-2-(4-chlorophenyl)-N-[(4-cyclobutyl-2,5-dioxoimidazolidin-4-yl)methyl]-2H-1,2,3-triazole-4-carboxamide] | 10 nM | 980 nM
O=C1NC(=O)C(CNC(=O)c2cnn(-c3cccc(Cl)c3)n2)(C2CCC2)N1 (single isomer, unassigned; ent-2) [Example 96, ent-2-(3-chlorophenyl)-N-[(4-cyclobutyl-2,5-dioxoimidazolidin-4-yl)methyl]-2H-1,2,3-triazole-4-carboxamide] | 48 nM | 2200 nM
Cc1scnc1C1(CNC(=O)c2cnn(-c3ccc(F)cc3)n2)NC(=O)NC1=O (single isomer, unassigned; ent-2) [Example 103] | 2 nM | 200 nM
O=C1NC(=O)C(CNC(=O)c2cnn(-c3ccc(F)c(F)c3)n2)(c2nccs2)N1 (single isomer, unassigned; ent-2) [Example 107, ent-2-(3,4-difluorophenyl)-N-{[2,5-dioxo-4-(1,3-thiazol-2-yl)imidazolidin-4-yl]methyl}-2H-1,2,3-triazole-4-carboxamide] | 7 nM | 310 nM
O=C1NC(=O)C(CNC(=O)c2cnn(-c3ccc(Cl)c(F)c3)n2)(c2nccs2)N1 (single isomer, unassigned; ent-2) [Example 110, ent-2-(4-chloro-3-fluorophenyl)-N-{[2,5-dioxo-4-(1,3-thiazol-2-yl)imidazolidin-4-yl]methyl}-2H-1,2,3-triazole-4-carboxamide] | 5 nM | 400 nM
O=C1NC(=O)C(CNC(=O)c2cnn(-c3ccc(F)c(Cl)c3)n2)(c2nccs2)N1 (single isomer, unassigned; ent-2) [Example 112, ent-2-(3-chloro-4-fluorophenyl)-N-{[2,5-dioxo-4-(1,3-thiazol-2-yl)imidazolidin-4-yl]methyl}-2H-1,2,3-triazole-4-carboxamide] | 14 nM | 780 nM
